Test results from patent US6653478B2, “Substituted benzimidazol-2-ones as vasopressin receptor antagonists and neuropeptide Y modulators” (Ortho-McNeil Pharmaceutical, Inc., priority 2000, dated 2003).

Tests used:
Design in all cases: expressed in transfected cells; host or cells: HEK-293 (membranes)
human V1a receptor = human V1a receptor (Homo sapiens, UniProt P37288); assay: V1a binding assay (3H-AVP displacement, HEK-293 membranes); conditions: for inhibition at 1 µM: 1.0 μM compound, read-out: V1a@1.0, % Inh
Experimental: (§1) V1a, V1b or V2 Binding Assay
(§2) Receptor binding studies were performed using recombinant human V1a, V1b or V2 receptors. Cellular membranes were harvested from HEK-293 cells transfected to express either the V1a, V1b or V2 receptors. Compounds were evaluated for their ability to displace ^3H-arginine vasopressin (^3H-AVP; specific activity 40-87 Ci/mmol; NEN Life Sciences, Boston, Mass.). Compounds were solubilized in dimethylsulfoxide (DMSO) and diluted to working concentration of 10% DMSO with assay buffer (50 mM Tris, 5 mM MgCl2, 0.1% BSA, pH 7.5). Assay buffer was supplemented with several protease inhibitors (1 mM Pefabloc, 5 μg/ml aprotinin/leupeptin/pepstatin A, 50 μg/ml bacitracin; Sigma Chemical, St. Louis, Mo.). Non-specific binding was determined using 1.25 μM arginine vasopressin (AVP; Peninsula Labs, Belmont, Calif.). Assay reagents and test compounds were added to 96-well round bottom polypropylene plates (145 μl buffer, 5 μl compound in 10% DMSO, 25 μl buffer containing 10,000 cpm tracer, 25 μl cell membrane). After incubation for 1 hour at room temperature, the well contents were aspirated across a Unifilter GF/C plate (Packard Instrument, Downers Grove, Ill.) which had been presoaked in 0.3% polyethyleneimine to prevent peptide sticking. The wells were washed repeatedly with cold saline containing 0.05% Tween 20. The plate was then dried and 25 μl Microscint-20 cocktail (Packard Instruments) added to each well. The plates were sealed and counted on a TopCount scintillation counter (Packard Instruments) using quench correction.

human V1b receptor = molecular target: T1, human V1b receptor (Homo sapiens, UniProt P47901); assay: V1b binding assay (3H-AVP displacement, HEK-293 membranes); conditions: for inhibition at 1 µM: 1.0 μM compound, read-out: V1b@1.0, % Inh
T1 sequence (P47901 1-424): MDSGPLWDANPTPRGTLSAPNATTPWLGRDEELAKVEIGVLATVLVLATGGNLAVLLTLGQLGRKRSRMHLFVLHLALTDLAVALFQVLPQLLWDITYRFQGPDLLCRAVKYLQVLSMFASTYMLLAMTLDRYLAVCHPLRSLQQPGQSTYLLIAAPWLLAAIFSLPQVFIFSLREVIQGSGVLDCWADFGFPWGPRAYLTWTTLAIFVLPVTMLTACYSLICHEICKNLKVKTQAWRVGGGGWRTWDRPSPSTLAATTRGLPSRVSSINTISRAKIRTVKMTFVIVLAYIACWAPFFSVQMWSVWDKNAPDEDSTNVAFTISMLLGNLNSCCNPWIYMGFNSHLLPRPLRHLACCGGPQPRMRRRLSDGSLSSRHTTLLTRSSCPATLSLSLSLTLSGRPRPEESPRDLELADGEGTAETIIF
Experimental: as §1, §2

human V2 receptor = human V2 receptor (Homo sapiens, UniProt P30518); assay: V2 binding assay (3H-AVP displacement, HEK-293 membranes); conditions: 1.0 μM compound; for inhibition at 1 µM: read-out: V2@1.0, % Inh
Experimental: as §1, §2

human V1a receptor, sequence (P37288 whole entry): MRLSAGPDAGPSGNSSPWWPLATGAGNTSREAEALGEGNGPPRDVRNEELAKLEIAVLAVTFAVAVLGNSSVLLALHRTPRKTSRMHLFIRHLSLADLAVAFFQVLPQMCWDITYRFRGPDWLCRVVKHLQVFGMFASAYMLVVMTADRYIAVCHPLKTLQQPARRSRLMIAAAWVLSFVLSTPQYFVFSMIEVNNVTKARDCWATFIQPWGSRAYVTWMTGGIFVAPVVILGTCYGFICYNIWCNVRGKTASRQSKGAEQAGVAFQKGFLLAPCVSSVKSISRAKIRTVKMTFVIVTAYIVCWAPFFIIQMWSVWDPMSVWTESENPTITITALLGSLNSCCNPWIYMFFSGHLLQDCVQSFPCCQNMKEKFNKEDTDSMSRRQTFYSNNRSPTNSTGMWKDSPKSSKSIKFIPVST
human V2 receptor, sequence (P30518 whole entry): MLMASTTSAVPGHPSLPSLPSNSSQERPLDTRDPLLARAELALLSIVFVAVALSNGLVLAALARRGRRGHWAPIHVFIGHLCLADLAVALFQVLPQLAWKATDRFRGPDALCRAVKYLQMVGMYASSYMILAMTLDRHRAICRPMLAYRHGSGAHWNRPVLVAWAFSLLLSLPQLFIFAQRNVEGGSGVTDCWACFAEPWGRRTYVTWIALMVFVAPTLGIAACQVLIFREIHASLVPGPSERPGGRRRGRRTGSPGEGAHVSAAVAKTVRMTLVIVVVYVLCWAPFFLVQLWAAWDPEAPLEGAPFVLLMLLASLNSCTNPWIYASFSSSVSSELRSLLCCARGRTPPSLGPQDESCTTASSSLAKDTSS

SMILES | IC50 (human V1a receptor) [µM] | inhibition at 1 µM (human V1b receptor) [%] | inhibition at 1 µM (human V2 receptor) [%] | IC50 (human V1b receptor) [µM] | inhibition at 1 µM (human V1a receptor) [%] | V2@1.0, % Inh (human V2 receptor; 1 µM) [%]
CCCN(CCC)CCCn1c(=O)n(C2CCN(C(=O)NC(c3ccccc3)c3ccccc3)CC2)c2ccccc21 [Compound 80, 1-[(N1-piperidinocarbonylbiphenylmethylamino)-4-yl]-3-(3-N,N-dipropylaminopropyl)-1,3-dihydrobenzimidazol-2-one] | 0.17 | 38 | 11 | – | – | –
O=c1n(CCCNCC2CCCCC2)c2ccccc2n1C1CCN(C(=S)NC(c2ccccc2)c2ccccc2)CC1 [Compound 88, 1-[(N1-piperidinocarbothioylbiphenylmethylamino)-4-yl]-3-(3-cyclohexylmethylaminopropyl)-1,3-dihydrobenzimidazol-2-one] | 0.036 | – | 3 | 1 | – | –
O=c1n(CCCN2CCCCC2)c2cc(C(F)(F)F)ccc2n1C1CCN(C(=S)NC(c2ccccc2)c2ccccc2)CC1 [Compound 121] | 0.33 | 39 | 3 | – | – | –
CCCC1CCN(CCCn2c(=O)n(C3CCN(C(=S)NC(c4ccccc4)c4ccccc4)CC3)c3ccccc32)CC1 [Compound 122, 1-[(N1-piperidinocarbothioylbiphenylmethylamino)-4-yl]-3-(4-propylpiperidin-1-yl-propyl)-1,3-dihydrobenzimidazol-2-one] | 0.052 | 70 | 0 | 0.25 | – | –
COc1cccc(CNC(=S)N2CCC(n3c(=O)n(CCCN4CCCC4)c4ccccc43)CC2)c1OC [Compound 123, 1-[(N1-Piperidinocarbothioyl-(2,3-dimethoxybenzyl)amino)-4-yl]-3-(3-pyrrolidinylpropyl)-1,3-dihydrobenzimidazol-2-one] | 0.43 | 31 | 2 | – | – | –
O=c1n(CCCN2CCCCC2)c2ccccc2n1C1CCN(C(=S)NCc2ccc(Cl)cc2)CC1 [Compound 124, 1-[(N1-piperidinocarbothioyl-4-chlorobenzylamino)-4-yl]-3-(3-N-piperidinylpropyl)-1,3-dihydrobenzimidazol-2-one] | 0.029 | 44 | 3 | – | – | –
O=c1n(CCCN2CCCCC2)c2ccccc2n1C1CCN(C(=S)NC2CCCCC2)CC1 [Compound 125, 1-[(N1-piperidinocarbothioylcyclohexylamino)-4-yl]-3-(3-N-piperidinylpropyl)-1,3-dihydrobenzimidazol-2-one] | 0.39 | 35 | 0 | – | – | –
O=c1n(CCCN2CCCCC2)c2ccccc2n1C1CCN(C(=S)NC(c2ccccc2)(c2ccccc2)c2ccccc2)CC1 [Compound 126, 1-[(N1-piperidinocarbothioyltriphenylmethylamino)-4-yl]-3-(3-N-piperidinylpropyl)-1,3-dihydrobenzimidazol-2-one] | – | 0 | 0 | – | 0 | –
O=c1n(CCCN2CCCCC2)c2ccccc2n1C1CCN(C(=S)NCc2ccccc2-c2ccccc2)CC1 [Compound 127] | 0.022 | 45 | – | – | – | 0
CCCNC(=S)N1CCC(n2c(=O)n(CCCN3CCCCC3)c3ccccc32)CC1 [Compound 128, 1-[(N1-piperidinocarbothioylpropylamino)-4-yl]-3-(3-N-piperidinylpropyl)-1,3-dihydrobenzimidazol-2-one] | – | 31 | 0 | – | 12 | –
O=c1n(CCCN2CCCCC2)c2ccccc2n1C1CCN(C(=S)N[C@]23C[C@H]4C[C@H](C[C@H](C4)C2)C3)CC1 [Compound 129, 1-[(N1-piperidinocarbothioyl-1-adamantylamino)-4-yl]-3-(3-N-piperidinylpropyl)-1,3-dihydrobenzimidazol-2-one] | 0.073 | 53 | 3 | – | – | –
CC(C)(C)NC(=S)N1CCC(n2c(=O)n(CCCN3CCCCC3)c3ccccc32)CC1 [Compound 130, 1-[(N1-piperidinocarbothioyl-butylamino)-4-yl]-3-(3-N-piperidinylpropyl)-1,3-dihydrobenzimidazol-2-one] | – | 26 | 2 | – | 19 | –

Second part, the molecule after the results:

IC50 (human V1a receptor) [µM] | inhibition at 1 µM (human V1b receptor) [%] | inhibition at 1 µM (human V2 receptor) [%] | IC50 (human V1b receptor) [µM] | inhibition at 1 µM (human V1a receptor) [%] | V2@1.0, % Inh (human V2 receptor; 1 µM) [%] | SMILES
0.048 | 62 | 0 | – | – | – | O=c1n(CCCN2CCCCC2)c2ccccc2n1C1CCN(C(=S)NC2c3ccccc3-c3ccccc32)CC1 [Compound 131, 1-[(N1-piperidinocarbothioylfluorenylamino)-4-yl]-3-(3-N-piperidinylpropyl)-1,3-dihydrobenzimidazol-2-one]
– | 55 | 0 | – | 66 | – | CC(C)c1ccccc1NC(=S)N1CCC(n2c(=O)n(CCCN3CCCCC3)c3ccccc32)CC1 [Compound 132, 1-[(N1-piperidinocarbothioyl-2-isopropylphenylamino)-4-yl]-3-(3-N-piperidinylpropyl)-1,3-dihydrobenzimidazol-2-one]
0.069 | 42 | 4 | – | – | – | O=c1n(CCCN2CCCCC2)c2ccccc2n1C1CCN(C(=S)NCCCc2ccccc2)CC1 [Compound 133, 1-[(N1-piperidinocarbothioylphenpropylamino)-4-yl]-3-(3-N-piperidinylpropyl)-1,3-dihydrobenzimidazol-2-one]
0.45 | 37 | 0 | – | – | – | O=c1n(CCCC2CCCCC2)c2ccccc2n1C1CCN(C(=S)NC(c2ccccc2)c2ccccc2)CC1 [Compound 134, 1-[(N1-Piperidinocarbothioyldiphenylmethylamino)-4-yl]-3-(3-cyclohexylpropyl)-1,3-dihydro-benzimidazol-2-one]
0.079 | 50 | 25 | – | – | – | COc1ccc(C(NC(=S)N2CCC(n3c(=O)n(CCCN4CCCCC4)c4ccccc43)CC2)c2ccc(OC)cc2)cc1 [Compound 136]
0.091 | 41 | 0 | – | – | – | CC(NC(=S)N1CCC(n2c(=O)n(CCCN3CCCCC3)c3ccccc32)CC1)c1ccc(F)cc1 (stereo not drawn) [Compound 137]
– | 21 | 0 | – | 58 | – | CC(C)c1ccccc1NC(=O)N1CCC(n2c(=O)n(CCCN3CCCCC3)c3ccccc32)CC1 [Compound 138]
– | 28 | 0 | – | 59 | – | O=c1n(CCCN2CCC2)c2ccccc2n1C1CCN(C(=S)NC(c2ccccc2)c2ccccc2)CC1 [Compound 140]
– | 29 | 0 | – | 83 | – | O=c1n(CCCN2CCCCCC2)c2ccccc2n1C1CCN(C(=S)NC(c2ccccc2)c2ccccc2)CC1 [Compound 141]
– | 23 | – | – | 61 | – | O=C1CCCN1CCCn1c(=O)n(C2CCN(C(=S)NC(c3ccccc3)c3ccccc3)CC2)c2ccccc21 [Compound 175]
– | 31 | – | – | 59 | – | O=C1CCCCN1CCCn1c(=O)n(C2CCN(C(=S)NC(c3ccccc3)c3ccccc3)CC2)c2ccccc21 [Compound 176]
0.147 | 31 | – | – | – | – | CC(C)N(CCCn1c(=O)n(C2CCN(C(=S)NC(c3ccccc3)c3ccccc3)CC2)c2ccccc21)C1CCCCC1 [Compound 177]
0.09 | 43 | – | – | – | – | CCCCN(CC)CCCn1c(=O)n(C2CCN(C(=S)NC(c3ccccc3)c3ccccc3)CC2)c2ccccc21 [Compound 178]
0.145 | 65 | – | – | – | – | CCN(CCCn1c(=O)n(C2CCN(C(=S)NC(c3ccccc3)c3ccccc3)CC2)c2ccccc21)C1CCCCC1 [Compound 179]
0.067 | 58 | – | – | – | – | CCC1CCN(CCCn2c(=O)n(C3CCN(C(=S)NC(c4ccccc4)c4ccccc4)CC3)c3ccccc32)C(C)C1 (stereo not drawn) [Compound 180]
0.023 | – | – | 0.15 | – | – | CC1CCCCN1CCCn1c(=O)n(C2CCN(C(=S)NC(c3ccccc3)c3ccccc3)CC2)c2ccccc21 (stereo not drawn) [Compound 181]
